Reference: patent US9284333B2, “Fused pyrroledicarboxamides and their use as pharmaceuticals” (SANOFI, priority 2012, dated 2016)

The molecules below were run against Human TASK-1 channels (Homo sapiens (Human), UniProt O14649) (assay: Determination of the activity on the TASK-1 channel in Xenopus oocytes (two-microelectrode voltage clamp)). Details: compound concentration 5 μM.
Human TASK-1 channels, sequence (O14649 whole entry): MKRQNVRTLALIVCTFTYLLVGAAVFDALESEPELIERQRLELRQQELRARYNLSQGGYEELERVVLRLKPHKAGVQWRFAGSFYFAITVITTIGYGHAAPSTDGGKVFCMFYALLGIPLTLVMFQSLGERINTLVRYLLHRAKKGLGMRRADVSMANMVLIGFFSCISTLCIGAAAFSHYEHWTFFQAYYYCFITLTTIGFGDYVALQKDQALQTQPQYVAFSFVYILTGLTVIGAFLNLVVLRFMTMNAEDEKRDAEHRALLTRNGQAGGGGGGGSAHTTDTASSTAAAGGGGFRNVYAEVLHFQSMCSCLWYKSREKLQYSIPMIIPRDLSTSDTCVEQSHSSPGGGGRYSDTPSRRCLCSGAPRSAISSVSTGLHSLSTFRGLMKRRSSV
Assay type: cell-based
Outline: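 Current during 500 ms pulses to 40 mV from a −90 mV hold was recorded in oocytes expressing human TASK-1 for two days after cRNA injection. Compounds were added cumulatively to the ND96 bath (pH 7.4, room temperature). IC50 came from dose-response fitting of inhibition relative to pre-compound current.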
In the case of CC[C@@H](NC(=O)c1cc(C(=O)N2CCC[C@@H]2C)c2n1CCOC2)c1ccc(C(F)(F)F)nc1 [16nk, 8-((S)-2-Methyl-pyrrolidine-1-carbonyl)-3,4-dihydro-1H-pyrrolo[2,1-c][1,4]oxazine-6-carboxylic acid [(R)-1-(6-trifluoromethyl-pyridin-3-yl)-propyl]-amide], the inhibition at 5 µM is reported as 62%. CC(C)[C@@H](NC(=O)c1cc(C(=O)N2CCC[C@@H]2C)c2n1CCOC2)c1ccc(C#N)nc1 [16nm, 8-((S)-2-Methyl-pyrrolidine-1-carbonyl)-3,4-dihydro-1H-pyrrolo[2,1-c][1,4]oxazine-6-carboxylic acid [(R)-1-(6-cyano-pyridin-3-yl)-2-methyl-propyl]-amide] gave an inhibition at 5 µM of 77%. Work on CC[C@@H](NC(=O)c1cc(C(=O)Nc2cncc(F)c2)n2c1CCCC2)c1ccccc1 [16ne, 5,6,7,8-Tetrahydro-indolizine-1,3-dicarboxylic acid 3-[(5-fluoro-pyridin-3-yl)-amide] 1-[((R)-1-phenyl-propyl)-amide]] yielded an inhibition at 5 µM of 83%. For CC[C@@H](NC(=O)c1cc(C(=O)N2CCC[C@@H]2C)n2c1COCC2)c1cncc(C(F)(F)F)c1 [16bk, 6-((S)-2-Methyl-pyrrolidine-1-carbonyl)-3,4-dihydro-1H-pyrrolo[2,1-c][1,4]oxazine-8-carboxylic acid [(R)-1-(5-trifluoromethyl-pyridin-3-yl)-propyl]-amide], the inhibition at 5 µM was 53%. With CC[C@@H](NC(=O)c1cc(C(=O)N2CCC[C@@H]2C)n2c1COCC2)c1ccc(SC)nc1 [16ra, 6-((S)-2-Methyl-pyrrolidine-1-carbonyl)-3,4-dihydro-1H-pyrrolo[2,1-c][1,4]oxazine-8-carboxylic acid [(R)-1-(6-methylsulfanyl-pyridin-3-yl)-propyl]-amide] the inhibition at 5 µM was 60%.

Same assay, conditions: human TASK-1 expressed in Xenopus oocytes, room temperature; read-out: IC50 value for TASK-1 inhibition
Work on CC[C@@H](NC(=O)c1cc(C(=O)NCc2cccc(S(C)(=O)=O)c2)n2c1COCC2)c1ccccc1 [16gv, 3,4-Dihydro-1H-pyrrolo[2,1-c][1,4]oxazine-6,8-dicarboxylic acid 6-(3-methanesulfonyl-benzylamide) 8-[((R)-1-phenyl-propyl)-amide]] yielded an IC50 of 1310 nM. CC[C@@H](NC(=O)c1cc(C(=O)NC(C)c2ccno2)n2c1COCC2)c1ccccc1 (stereo partly drawn) [16hh, 3,4-Dihydro-1H-pyrrolo[2,1-c][1,4]oxazine-6,8-dicarboxylic acid 6-[(1-isoxazol-5-yl-ethyl)-amide] 8-[((R)-1-phenyl-propyl)-amide]] gave an IC50 of 1000 nM. For CC[C@@H](NC(=O)c1cc(C(=O)N[C@@H](CO)C(C)C)n2c1COCC2)c1ccccc1 [16jj, 3,4-Dihydro-1H-pyrrolo[2,1-c][1,4]oxazine-6,8-dicarboxylic acid 6-[((R)-1-hydroxymethyl-2-methyl-propyl)-amide] 8-[((R)-1-phenyl-propyl)-amide]], the IC50 was 4400 nM. CC[C@@H](NC(=O)c1cc(C(=O)N[C@@H]2CCc3ccccc32)n2c1COCC2)c1ccccc1 [16gp, 3,4-Dihydro-1H-pyrrolo[2,1-c][1,4]oxazine-6,8-dicarboxylic acid 6-(R)-indan-1-ylamide 8-[((R)-1-phenyl-propyl)-amide]] gave an IC50 of 570 nM. CC[C@@H](NC(=O)c1cc(C(=O)NCc2ncco2)n2c1COCC2)c1ccccc1 [16ha, 3,4-Dihydro-1H-pyrrolo[2,1-c][1,4]oxazine-6,8-dicarboxylic acid 6-[(oxazol-2-ylmethyl)-amide] 8-[((R)-1-phenyl-propyl)-amide]] gave an IC50 of 350 nM. Molecule CC(C)[C@@H](NC(=O)c1cc(C(=O)N2CCC[C@@H]2C)n2c1COCC2)c1ccc(C(F)(F)F)nc1 [16aq, 6-((S)-2-Methyl-pyrrolidine-1-carbonyl)-3,4-dihydro-1H-pyrrolo[2,1-c][1,4]oxazine-8-carboxylic acid [(R)-2-methyl-1-(6-trifluoromethyl-pyridin-3-yl)-propyl]-amide] has an IC50 of 460 nM. In the case of CC[C@@H](NC(=O)c1cc(C(=O)N[C@H]2CCc3ccccc32)n2c1COCC2)c1ccccc1 [16gj, 3,4-Dihydro-1H-pyrrolo[2,1-c][1,4]oxazine-6,8-dicarboxylic acid 6-(S)-indan-1-ylamide 8-[((R)-1-phenyl-propyl)-amide]], the IC50 is reported as 48 nM. Work on CC[C@H](NC(=O)c1cc(C(=O)N2CCC[C@@H]2C)n2c1COCC2)c1ccc(C(F)(F)F)nc1 [16bj, 6-((S)-2-Methyl-pyrrolidine-1-carbonyl)-3,4-dihydro-1H-pyrrolo[2,1-c][1,4]oxazine-8-carboxylic acid [(S)-1-(6-trifluoromethyl-pyridin-3-yl)-propyl]-amide] yielded an IC50 of 4100 nM. With C[C@H]1CCCN1C(=O)c1cc(C(=O)NCc2c(F)cccc2Cl)c2n1CCOC2 [16nu, 6-((S)-2-Methyl-pyrrolidine-1-carbonyl)-3,4-dihydro-1H-pyrrolo[2,1-c][1,4]oxazine-8-carboxylic acid 2-chloro-6-fluoro-benzylamide] the IC50 was 150 nM. CC[C@@H](NC(=O)c1cc(C(=O)N(C)Cc2ccccn2)n2c1COCC2)c1ccccc1 [16gw, 3,4-Dihydro-1H-pyrrolo[2,1-c][1,4]oxazine-6,8--dicarboxylic acid 6-(methyl-pyridin-2-ylmethyl-amide) 8-[((R)-1-phenyl-propyl)-amide]] was tested, and the IC50 was 780 nM. CC[C@@H](NC(=O)c1cc(C(=O)N[C@@H](C)c2ccc(F)cc2)n2c1CCCC2)c1ccccc1 [16lt, 5,6,7,8-Tetrahydro-indolizine-1,3-dicarboxylic acid 3-{[(S)-1-(4-fluoro-phenyl)-ethyl]-amide} 1-[((R)-1-phenyl-propyl)-amide]] showed an IC50 of 58 nM. CC[C@@H](NC(=O)c1cc(C(=O)NCc2ccc(C(=O)OC)cc2)n2c1COCC2)c1ccccc1 [16ir, 4-({[8-((R)-1-Phenyl-propylcarbamoyl)-3,4-dihydro-1H-pyrrolo[2,1-c][1,4]oxazine-6-carbonyl]-amino}-methyl)-benzoic acid methyl ester] was tested, and the IC50 was 350 nM. CC[C@@H](NC(=O)c1cc(C(=O)N[C@H](C)c2ccc(F)cc2)n2c1COCC2)c1ccccc1 [16gl, 3,4-Dihydro-1H-pyrrolo[2,1-c][1,4]oxazine-6,8-dicarboxylic acid 6-{[(R)-1-(4-fluoro-phenyl)-ethyl]-amide} 8-[((R)-1-phenyl-propyl)-amide]] showed an IC50 of 42 nM. Molecule CC[C@@H](NC(=O)c1cc(C(=O)N[C@@H](C)C(=O)OC(C)C)n2c1COCC2)c1ccccc1 [16it, (S)-2-{[8-((R)-1-Phenyl-propylcarbamoyl)-3,4-dihydro-1H-pyrrolo[2,1-c][1,4]oxazine-6-carbonyl]-amino}-propionic acid isopropyl ester] has an IC50 of 130 nM. Molecule CC(C)[C@@H](NC(=O)c1cc(C(=O)N2CCC[C@@H]2C)n2c1COCC2)c1ccc(C#N)nc1 [16am, 6-((S)-2-Methyl-pyrrolidine-1-carbonyl)-3,4-dihydro-1H-pyrrolo[2,1-c][1,4]oxazine-8-carboxylic acid [(R)-1-(6-cyano-pyridin-3-yl)-2-methyl-propyl]-amide] has an IC50 of 920 nM. With CC[C@@H](NC(=O)c1cc(C(=O)N2CCC[C@@H]2C(F)(F)F)n2c1COCC2)c1ccc(C(F)(F)F)nc1 [16o, 6-((R)-2-Trifluoromethyl-pyrrolidine-1-carbonyl)-3,4-dihydro-1H-pyrrolo[2,1-c][1,4]oxazine-8-carboxylic acid [(R)-1-(6-trifluoromethyl-pyridin-3-yl)-propyl]-amide] the IC50 was 410 nM.
